Legend:
[1] = molecular target: T1, AChE (Mus musculus, UniProt P21836); assay: AChE activity ex vivo in brain homogenates (Ellman), acute ESC model; parameters: species or system mice; settings: soluble fraction of brain homogenates, vs ESC group, 3 p<0.05, donepezil p<0.01
T1 construct: the resulting clear supernatants were used as enzyme sources; from tissue; host or cells: mouse whole brain, supernatant of the homogenate (10,000 x G)
T1 sequence (P21836 32-614): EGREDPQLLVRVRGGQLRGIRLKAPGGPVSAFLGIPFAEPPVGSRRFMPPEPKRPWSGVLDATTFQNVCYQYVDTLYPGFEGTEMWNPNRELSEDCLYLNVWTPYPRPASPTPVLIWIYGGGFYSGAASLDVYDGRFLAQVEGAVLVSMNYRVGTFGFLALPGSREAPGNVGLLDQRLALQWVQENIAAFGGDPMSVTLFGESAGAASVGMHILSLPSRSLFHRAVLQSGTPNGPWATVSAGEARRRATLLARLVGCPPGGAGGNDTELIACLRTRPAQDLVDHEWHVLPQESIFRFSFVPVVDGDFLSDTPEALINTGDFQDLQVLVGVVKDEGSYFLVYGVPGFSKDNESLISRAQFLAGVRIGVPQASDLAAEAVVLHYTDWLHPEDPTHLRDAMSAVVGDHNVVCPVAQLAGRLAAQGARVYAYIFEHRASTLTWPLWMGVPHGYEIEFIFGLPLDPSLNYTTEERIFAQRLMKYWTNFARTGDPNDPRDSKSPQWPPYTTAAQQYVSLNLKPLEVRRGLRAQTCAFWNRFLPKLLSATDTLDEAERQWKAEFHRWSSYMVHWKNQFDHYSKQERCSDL
Description: Briefly the procedure was as follows; at the end of the behavioral experiments, the mice were anesthetized and decapitated to quickly remove the brains, which were placed on an ice-cold plate. They were weighed and homogenized (1/10, w/v) in cold 10 mmol/L Tris-HCl buffer, pH 7.2, containing 160 mmol/L sucrose. The homogenates were centrifuged at 10,000×G for 10 minutes at 4° C., and the resulting clear supernatants were used as enzyme sources, which were aliquoted (n=10 per group) and stored at −20° C. The assay was performed in 96-well microtiter plates using Ellman's reagent (DTNB 10 mmol/L), 50 μL homogenate and 10 μL Acetylcholine iodide (AChl, 20 mmol/L) (final volume 200 μL). The absorbance of the yellow hydrolyzate of the 5-thio-2-nitrobenzoic acid dianion (molar extinction coefficient: 13 700 mol/L^−1 cm^−1), was measured at 412 nm, for 20 minutes with an interval of 1 minute. AChE activity was performed in triplicate and was expressed in nmol of hydrolyzed Achl per minute per mg of protein.
All data are expressed as the mean±standard error of the mean (SEM). The comparison of the cholinesterase activity values was carried out by means of a one-way analysis of variance, followed by the Turkey post-hoc test. Statistical analysis was performed using GraphPadPrism version 5 (GraphPad Software, Inc., San Diego, USA).

[2] = system: amnesia induced by the acute administration of scopolamine; assay: Object discrimination test, intranasal administration, acute ESC; assay type: in vivo, mice; settings: nasal formulation, single intranasal dose (74 μg/kg); ESC 1.5 mg/kg ip; vs control groups
Description: Male C57BL/6 mice (20-25 g), supplied by the National Center for the Laboratory Animals Production (CENPALAB, Cuba) were used. The conditions of adaptation and maintenance of the animals before carrying out the experiment were similar to those developed in non-limiting Example 4.
At the end of the adaptation period, the animals were randomly distributed according to their body weights in four experimental groups of 10 animals each: two healthy control groups, one administered with a vehicle via the nasal route (G1) and the other with saline solution via. ip (G2); a sick control group, administered with nasal saline and then, with ESC dissolved in saline solution (1.5 mg/kg, ip) (G3) and a treated group, administered with compound 3 prepared according to the formulation of non-limiting Example 10 and after 15 minutes the ESC is administered (1.5 mg/kg, ip) (G4). This experiment was carried out in two experimental series under the same conditions described in order to study the effects of the nasal formulation of compound 3 in two behavioral models: Y-maze in the hidden arm modality and the object discrimination model. […]
The Object Recognition Test (ORT) is a commonly used behavioral test for the investigation of various aspects of learning and memory, particularly recognition memory, in rodent models of CNS disorders. […] The behavior of the animal was recorded using a video camera. […]

Compound: CSC(=S)NCCNC(=O)CCC(=O)Nc1cccc2ccccc12 [compound 3, methyl(2-{[4-(1-naphthylamino)-4-oxobutanoyl]amino}ethyl)dithiocarbamate]
- AChE activity ex vivo [1]: significantly reduced
- discrimination index (DI) of the novel object [2]: No significant differences were observed in the discrimination index
